Data from patent publication US10195185B2, “3-(1H-imidazo[4,5-C]pyridin-2-yl)-1H-pyrazolo[4,3-B]pyridines and therapeutic uses thereof” (Samumed, LLC, priority 2015, dated 2019).

Columns and labels:
Type in all cases: cell-based
[1] = tested on: SW480 colon cancer cells; assay: Cell viability assay (CellTiter-Blue), four days; details: Homo sapiens, 96 h; for inhibition at 10 µM: read-out: percent inhibition at 10 μM (given for EC50 of >10 μM); for EC50: CellTiter-Blue cell viability
Summary of the method: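 SW480 cells (~2×10^3 per well) were exposed to compound for four days at 37 °C/5% CO2, using 8-point 1:3 dilutions from 10 μM to 0.0045 μM in duplicate. Viability was read by resazurin reduction (CellTiter-Blue, ~3 h, Ex 560/Em 590 nm). EC50 came from non-linear regression; above 10 μM, percent inhibition at 10 μM is given.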

[2] = tested on: IL-6 in human monocyte cell line (THP-1 cells); assay: IL-6 inhibition in LPS-stimulated THP-1 cells (HTRF); details: IL-6 in LPS-stimulated THP-1 cells; for EC50: HTRF; for inhibition at 10 µM: read-out: percent inhibition in brackets beside EC50 >10 μM
Summary of the method: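 THP-1 cells, serum-reduced (1% FBS) for 24 h, were preincubated with compound (10-point 1:3 series from 10 μM, 0.1% DMSO) for 2 h, then stimulated with 500 ng/mL LPS for 22 h at 37° C. IL-6 was read by HTRF (665/620 nm ratio) and normalized to DMSO. EC50 from four-parameter fit; % inhibition at 10 μM given if EC50 >10 μM.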

[3] = tested on: Wnt activity (Wnt-responsive human Sp5 promoter, TCF/LEF binding sites) in SW480 colon carcinoma cells; assay: Wnt activity screening assay: Sp5-Luc luciferase reporter gene in SW480 cells; details: for EC50: 10-point dose-response from 10 μM, incubated overnight; for inhibition at 10 µM: given for EC50 of >10 μM, read-out: percent inhibition at 10 μM
Summary of the method: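 Luminescence read-out (BrightGlo) from stable Sp5-Luc SW480 cells, normalized to DMSO-only wells. Cells were treated overnight at 37° C in 1% FBS medium across a 1:3, 10-point series starting at 10 μM. EC50 from variable-slope four-parameter regression; percent inhibition at 10 μM given where EC50 >10 μM.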

| Structure (SMILES) | inhibition at 10 µM [1] | EC50 [1] | EC50 [2] | inhibition at 10 µM [2] | EC50 [3] | inhibition at 10 µM [3] |
| --- | --- | --- | --- | --- | --- | --- |
| c1cc(-c2nccc3[nH]c(-c4n[nH]c5ccc(-c6cncc(OC7CCNCC7)c6)nc45)nc23)ccn1 [Compound 576, 5-(5-(Piperidin-4-yloxy)pyridin-3-yl)-3-(4-(pyridin-4-yl)-1H-imidazo[4,5-c]pyridin-2-yl)-1H-pyrazolo[4,3-b]pyridine] | 24.6% | > 10 µM | > 10 µM | 22.3% | > 10 µM | 17.9% |
| NC1CN(c2cncc(-c3ccc4[nH]nc(-c5nc6c(-c7cccc(F)c7)nccc6[nH]5)c4n3)n2)C1 [Compound 510, 1-(6-(3-(4-(3-Fluorophenyl)-1H-imidazo[4,5-c]pyridin-2-yl)-1H-pyrazolo [4,3-b]pyridin-5-yl)pyrazin-2-yl)azetidin-3-amine] |  | 9.29 µM | > 10 µM | 9.4% | > 10 µM | 16.3% |
| Cc1ccc(-c2nccc3[nH]c(-c4n[nH]c5ccc(-c6cncc(NC(=O)C7CCCC7)c6)nc45)nc23)s1 [Compound 414, N-(5-(3-(4-(5-Methylthiophen-2-yl)-1H-imidazo[4,5-c]pyridin-2-yl)-1H-pyrazolo[4,3-b]pyridin-5-yl)pyridin-3-yl)cyclopentanecarboxamide] | 0.4% | > 10 µM | > 10 µM | 46.3% | > 10 µM | 23.8% |
| Fc1cccc(-c2nccc3[nH]c(-c4n[nH]c5ccc(-c6cn[nH]c6)nc45)nc23)c1 [Compound 507, 3-(4-(3-Fluorophenyl)-1H-imidazo[4,5-c]pyridin-2-yl)-5-(1H-pyrazol-4-yl)-1H-pyrazolo[4,3-b]pyridine] |  | > 10 µM | > 10 µM | 0% | > 10 µM | 15% |
| CC(C)CC(=O)Nc1cncc(-c2ccc3[nH]nc(-c4nc5c(-c6cccc(F)c6)nccc5[nH]4)c3n2)c1 [Compound 2, N-(5-(3-(4-(3-Fluorophenyl)-1H-imidazo[4,5-c]pyridin-2-yl)-1H-pyrazolo [4,3-b]pyridin-5-yl)pyridin-3-yl)-3-methylbutanamide] |  | 2.7 µM | > 10 µM | 2.5% | 8.63 µM |  |
| Cc1ccncc1-c1ccc2[nH]nc(-c3nc4c(-c5cc(F)cc(CNS(C)(=O)=O)c5)nccc4[nH]3)c2n1 [Compound 481, N-(3-Fluoro-5-(2-(5-(4-methylpyridin-3-yl)-1H-pyrazolo[4,3-b]pyridin-3-yl)-1H-imidazo[4,5-c]pyridin-4-yl)benzyl)methanesulfonamide] |  | 7.14 µM | 9.81 µM |  | 2.37 µM |  |
| Cc1ccc(-c2nccc3[nH]c(-c4n[nH]c5ccc(-c6cncc(NC(=O)C(C)C)c6)nc45)nc23)s1 [Compound 401, N-(5-(3-(4-(5-Methylthiophen-2-yl)-1H-imidazo[4,5-c]pyridin-2-yl)-1H-pyrazolo [4,3-b]pyridin-5-yl)pyridin-3-yl)isobutyramide] | 2.5% | > 10 µM | > 10 µM | 0% | > 10 µM | 17.2% |
| c1ccc(COc2cncc(-c3ccc4[nH]nc(-c5nc6c(-c7ccncc7)nccc6[nH]5)c4n3)c2)cc1 [Compound 582, 5-(5-(Benzyloxy)pyridin-3-yl)-3-(4-(pyridin-4-yl)-1H-imidazo[4,5-c]pyridin-2-yl)-1H-pyrazolo[4,3-b]pyridine] | 10.9% | > 10 µM | > 10 µM | 8.3% | > 10 µM | 18.1% |
| O=C(Nc1cncc(-c2ccc3[nH]nc(-c4nc5c(-c6cccc(F)c6)nccc5[nH]4)c3n2)c1)C1CC1 [Compound 20, N-(5-(3-(4-(3-Fluorophenyl)-1H-imidazo[4,5-c]pyridin-2-yl)-1H-pyrazolo [4,3-b]pyridin-5-yl)pyridin-3-yl)cyclopropanecarboxamide] | 6% | > 10 µM | > 10 µM | 0% | > 10 µM | 14.7% |
| Fc1cccc(-c2nccc3[nH]c(-c4n[nH]c5ccc(-c6cnccn6)nc45)nc23)c1 [Compound 520, 3-(4-(3-Fluorophenyl)-1H-imidazo[4,5-c]pyridin-2-yl)-5-(pyrazin-2-yl)-1H-pyrazolo[4,3-b]pyridine] | 6.6% | > 10 µM | > 10 µM | 29.4% | > 10 µM | 12.2% |
| c1cc2[nH]c(-c3n[nH]c4ccc(-c5cncc(OCCN6CCCC6)c5)nc34)nc2c(N2CCCCC2)n1 [Compound 610, 3-(4-(Piperidin-1-yl)-1H-imidazo[4,5-c]pyridin-2-yl)-5-(5-(2-(pyrrolidin-1-yl)ethoxy)pyridin-3-yl)-1H-pyrazolo[4,3-b]pyridine] |  | 9.87 µM | > 10 µM | 34.9% | > 10 µM | 46.2% |
| Fc1cccc(-c2nccc3[nH]c(-c4n[nH]c5ccc(C6CCNCC6)nc45)nc23)c1 [Compound 505, 3-(4-(3-Fluorophenyl)-1H-imidazo[4,5-c]pyridin-2-yl)-5-(piperidin-4-yl)-1H-pyrazolo[4,3-b]pyridine] | 0.4% | > 10 µM | > 10 µM | 9.3% | > 10 µM | 11.9% |
| CN(C)CCOc1cncc(-c2ccc3[nH]nc(-c4nc5c(-c6cccc(F)c6)nccc5[nH]4)c3n2)c1 [Compound 515, 2-((5-(3-(4-(3-Fluorophenyl)-1H-imidazo[4,5-c]pyridin-2-yl)-1H-pyrazolo [4,3-b]pyridin-5-yl)pyridin-3-yl)oxy)-N,N-dimethylethan-1-amine] |  | 1.61 µM | 3.57 µM |  | 3.48 µM |  |
| Oc1cncc(-c2ccc3[nH]nc(-c4nc5c(-c6cccc(F)c6)nccc5[nH]4)c3n2)c1 [Compound 517, 5-(3-(4-(3-Fluorophenyl)-1H-imidazo[4,5-c]pyridin-2-yl)-1H-pyrazolo[4,3-b]pyridin-5-yl)pyridin-3-ol] | 3.5% | > 10 µM | > 10 µM | 54.4% | 0.523 µM |  |
| CC(C)Nc1cncc(-c2ccc3[nH]nc(-c4nc5c(-c6cc(F)cc(NCCN(C)C)c6)nccc5[nH]4)c3n2)c1 [Compound 460, N^1-(3-Fluoro-5-(2-(5-(5-(isopropylamino)pyridin-3-yl)-1H-pyrazolo[4,3-b]pyridin-3-yl)-1H-imidazo[4,5-c]pyridin-4-yl)phenyl)-N^2,N^2-dimethylethane-1,2-diamine] |  | 0.585 µM | 1.25 µM |  | 1.03 µM |  |
| CCCCC(=O)Nc1cncc(-c2ccc3[nH]nc(-c4nc5c(-c6cc(F)cc(NCCN(C)C)c6)nccc5[nH]4)c3n2)c1 [Compound 467, N-(5-(3-(4-(3-((2-(Dimethylamino)ethyl)amino)-5-fluorophenyl)-1H-imidazo[4,5-c]pyridin-2-yl)-1H-pyrazolo[4,3-b]pyridin-5-yl)pyridin-3-yl)pentanamide] | 0% | > 10 µM | > 10 µM | 33.1% | > 10 µM | 0% |
| CN(C)c1cncc(-c2ccc3[nH]nc(-c4nc5c(-c6cccc(F)c6)nccc5[nH]4)c3n2)c1 [Compound 7] |  | 0.944 µM | 3.11 µM |  | 0.379 µM |  |
| COc1cncc(-c2ccc3[nH]nc(-c4nc5c(-c6cccc(F)c6)nccc5[nH]4)c3n2)c1 [Compound 516, 3-(4-(3-Fluorophenyl)-1H-imidazo[4,5-c]pyridin-2-yl)-5-(5-methoxypyridin-3-yl)-1H-pyrazolo[4,3-b]pyridine] |  | 0.322 µM | > 10 µM | 25.1% | 1.28 µM |  |
| CCCC(=O)Nc1cncc(-c2ccc3[nH]nc(-c4nc5c(-c6cc(F)cc(CNS(C)(=O)=O)c6)nccc5[nH]4)c3n2)c1 [Compound 493, N-(5-(3-(4-(3-Fluoro-5-(methylsulfonamidomethyl)phenyl)-1H-imidazo[4,5-c]pyridin-2-yl)-1H-pyrazolo[4,3-b]pyridin-5-yl)pyridin-3-yl)butyramide] | 4.3% | > 10 µM | > 10 µM | 20.3% | > 10 µM | 15.1% |
| O=C(Nc1cncc(-c2ccc3[nH]nc(-c4nc5c(-c6cccs6)nccc5[nH]4)c3n2)c1)C1CC1 [Compound 356, N-(5-(3-(4-(Thiophen-2-yl)-1H-imidazo[4,5-c]pyridin-2-yl)-1H-pyrazolo [4,3-b]pyridin-5-yl)pyridin-3-yl)cyclopropanecarboxamide] | 1.5% | > 10 µM | > 10 µM | 0% | > 10 µM | 4.1% |
